This note sets out measurements from patent US20160304556A1, “[…] ACTIVE COMPOUNDS AND THEIR METHODS OF USE” (AGIOS PHARMACEUTICALS, INC, priority 2012, published 2016).

The term IC50 denotes the point on the concentration scale where inhibition reaches its midpoint.

SMILES strings stand for the structures.

In one assay the target is IDH1 R132C (Homo sapiens, UniProt O75874, R132C). Kind of assay: In vitro NADPH depletion assay for IDH1m R132C inhibitors. The settings on record: enzyme, diaphorase/resazurin readout, read-out: IDH R132C IC50. It counts as biochemical. The procedure: A test compound is prepared as 10 mM stock in DMSO and diluted to 50× final concentration in DMSO, for a 50 μl reaction mixture. IDH enzyme activity converting alpha-ketoglutarate to 2-hydroxyglutaric acid is measured using a NADPH depletion assay. In the assay the remaining cofactor is measured at the end of the reaction with the addition of a catalytic excess of diaphorase and resazurin, to generate a fluorescent signal in proportion to the amount of NADPH remaining. IDH1-R132 homodimer enzyme is diluted to […] in 40 μl of Assay Buffer(150 mM NaCl, 20 mM Tris-Cl pH 7.5, 10 mM MgCl2, 0.05% BSA, 2 mM b-mercaptoethanol); 1 μl of test compound dilution in DMSO is added and the mixture is incubated for 60 minutes at room temperature. The reaction is started with the addition of 10 μl of Substrate Mix ([…], 5 mM alpha-ketoglutarate, in Assay Buffer) and the mixture is incubated for 90 minutes at room temperature. The reaction is terminated with the addition of 25 μl of Detection Buffer (36 μg/ml diaphorase, […], in 1× Assay Buffer), and is incubated for 1 minute before reading on a SpectraMax platereader at Ex544/Em590.
Chain of IDH1 R132C (O75874 whole entry R132C): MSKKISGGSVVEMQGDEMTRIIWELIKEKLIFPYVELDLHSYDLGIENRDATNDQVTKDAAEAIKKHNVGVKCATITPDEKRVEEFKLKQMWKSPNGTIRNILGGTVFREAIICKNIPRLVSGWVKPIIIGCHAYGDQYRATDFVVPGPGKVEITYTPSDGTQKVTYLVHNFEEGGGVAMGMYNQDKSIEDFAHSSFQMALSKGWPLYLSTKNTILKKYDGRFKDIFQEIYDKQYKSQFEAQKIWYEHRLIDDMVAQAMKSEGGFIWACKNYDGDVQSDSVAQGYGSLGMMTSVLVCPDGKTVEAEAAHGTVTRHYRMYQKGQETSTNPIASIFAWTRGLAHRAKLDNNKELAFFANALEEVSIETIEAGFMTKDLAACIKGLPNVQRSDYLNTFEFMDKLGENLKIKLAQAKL
Compounds are assayed for their activity against IDH1 R132C following the same assay as above with the following modifications: Assay Buffer is (50 mM potassium phosphate, pH 6.5; 40 mM sodium carbonate, 5 mM MgCl2, 10% glycerol, 2 mM b-mercaptoethanol, and 0.03% BSA). The concentration of NADPH and alpha-ketoglutarate in the Substrate Buffer is 20 μM and 1 mM, respectively.
Representative compounds of formula I set forth in Table 1 were tested in this assay and the results are set forth below in Table 3.

The target in the next assay is IDH1 R132H (Homo sapiens, UniProt O75874, R132H). Kind of assay: In vitro NADPH depletion assay for IDH1m R132H inhibitors. It counts as biochemical. The settings on record: enzyme, diaphorase/resazurin readout, read-out: IDH R132H IC50. The gist of the method: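 IDH1-R132H homodimer […] was preincubated with compound for 60 min at room temperature in 20 mM Tris-Cl pH 7.5, 150 mM NaCl, 10 mM MgCl2, 0.05% BSA, 2 mM b-mercaptoethanol. Substrate mix (NADPH, 5 mM alpha-ketoglutarate) then reacted for 90 min. Remaining NADPH was read by diaphorase/resazurin fluorescence at Ex544/Em590.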
Chain of IDH1 R132H (O75874 whole entry R132H): as the sequence (O75874 whole entry R132C) above, with C132H counted along it
For orientation: Alamar Blue is a resazurin reagent that responds to reducing activity.

Another assay concerns HT1080 cells. The assay is described as follows: Cellular assay, inhibition of 2-HG production (LC-MS) in HT1080 cells. It counts as cell-based. The settings on record: Homo sapiens, HT-1080, 48 hours, LC-MS of media. The gist of the method: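 HT1080 cells (5000/well) were incubated 48 hours with compound, 0.2% DMSO final. Medium 2-HG was quantified by LC-MS, and IC50 was taken as the concentration giving 50% reduction versus DMSO control. Viability was read by CellTiter-Glo luminescence at 72 hours.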

As for `O=C(NC1CC(F)(F)C1)[C@H](c1ccccc1Cl)N(C(=O)[C@@H]1CCCN1c1ncccn1)c1cccc(F)c1` [Compound 69, (2S)—N—((S)-(3,3-difluorocyclobutylcarbamoyl)(2-chlorophenyl)methyl)-N-(3-fluorophenyl)-1-(pyrimidin-2-yl)pyrrolidine-2-carboxamide], the IC50 at IDH1 R132C, at IDH1 R132H and in the assay with HT1080 cells was at most 100 nM each time.
Take `COC(=O)N1C[C@@H](F)C[C@H]1C(=O)N(c1cccc(F)c1)[C@H](C(=O)NC1CC(F)(F)C1)c1ccccc1Cl` [Compound 70]: the figures for the half-inhibitory concentration (IC50) at IDH1 R132C, on IDH1 R132H and in the assay on HT1080 cells were at most 100 nM, at most 100 nM and 100 to 500 nM, respectively.
In the case of `COC(=O)NCC(=O)N(c1cccc(F)c1)C(C(=O)NC1CC(F)(F)C1)c1ccccc1Cl` (stereo not drawn) [Compound 73, methyl 2-((1-(2-chlorophenyl)-2-(3,3-difluorocyclobutylamino)-2-oxoethyl)(3-fluorophenyl)amino)-2-oxoethylcarbamate], the IC50 on IDH1 R132C was 100 to 500 nM; on IDH1 R132H, 100 to 500 nM; with HT1080 cells it was 500 to 1000 nM.
For `CC(C)OC(=O)NCC(=O)N(c1cccc(F)c1)C(C(=O)NC1CC(F)(F)C1)c1ccccc1Cl` (stereo not drawn) [Compound 74], the IC50 is 100 to 500 nM at IDH1 R132C, 100 to 500 nM at IDH1 R132H and 1000 to 2000 nM with HT1080 cells.
As for `CCOC(=O)NCC(=O)N(c1cccc(F)c1)C(C(=O)NC1CC(F)(F)C1)c1ccccc1Cl` (stereo not drawn) [Compound 75], the results for the IC50 at IDH1 R132C, on IDH1 R132H and in the assay with HT1080 cells were 100 to 500 nM, 100 to 500 nM and 500 to 1000 nM, respectively.
For `COCCO[C@@H]1C[C@@H](C(=O)N(c2cccc(F)c2)[C@H](C(=O)NC2CC(F)(F)C2)c2ccccc2Cl)N(C(=O)OC)C1` [Compound 79, (2S,4R)-methyl 2-(((S)-1-(2-chlorophenyl)-2-((3,3-difluoro-cyclobutyl)amino)-2-oxoethyl)(3-fluorophenyl)carbamoyl)-4-(2-methoxyethoxy)pyrrolidine-1-carboxylate], the IC50 at IDH1 R132C, at IDH1 R132H and in the assay with HT1080 cells was at most 100 nM each time.
For `COC(=O)NCC(=O)N(c1cccc(F)c1)C(C(=O)NC1CCC(F)CC1)c1ccccc1Cl` (stereo not drawn) [Compound 81], the IC50 at IDH1 R132C, on IDH1 R132H and in the assay on HT1080 cells was 100 to 500 nM throughout.
With `COC(=O)NCC(=O)N(c1cccc(F)c1)[C@H](C(=O)N[C@H]1CCCCC1(F)F)c1ccccc1Cl` [Compound 82], the IC50 was at most 100 nM on IDH1 R132C, at most 100 nM at IDH1 R132H and 100 to 500 nM in the assay on HT1080 cells.
For `COC(=O)NCC(=O)N(c1cccc(F)c1)[C@H](C(=O)N[C@@H]1CCCCC1(F)F)c1ccccc1Cl` [Compound 83], the figures for the IC50 on IDH1 R132C, on IDH1 R132H and with HT1080 cells were 100 to 500 nM, 100 to 500 nM and 500 to 1000 nM, respectively.
With `COC(=O)N[C@@H](CO)C(=O)N(c1cccc(F)c1)[C@H](C(=O)NC1CCCCC1)c1ccccc1Cl` [Compound 84], the half-inhibitory concentration (IC50) at IDH1 R132C was at most 100 nM; at IDH1 R132H, at most 100 nM; in the assay on HT1080 cells, 100 to 500 nM.
On to `COC(=O)N[C@@H](CO)C(=O)N(c1cccc(F)c1)[C@@H](C(=O)NC1CCCCC1)c1ccccc1Cl` [Compound 85], for which the IC50 was 100 to 500 nM on IDH1 R132C, at most 100 nM on IDH1 R132H and 500 to 1000 nM with HT1080 cells.
For `O=C(NC1CC(F)(F)C1)C(c1ccccc1Cl)N(C(=O)Cc1cccnc1)c1cccc(F)c1` (stereo not drawn) [Compound 86], the half-maximal inhibitory concentration (IC50) is at most 100 nM at IDH1 R132C, at most 100 nM on IDH1 R132H and 100 to 500 nM with HT1080 cells.
Take `Cc1nc(Cl)c(Cl)n1CC(=O)N(c1cccc(F)c1)C(C(=O)NC1CC(F)(F)C1)c1ccccc1Cl` (stereo not drawn) [Compound 87]: the figures for the concentration for half-maximal inhibition (IC50) on IDH1 R132C, on IDH1 R132H and in the assay on HT1080 cells were at most 100 nM, at most 100 nM and 100 to 500 nM, respectively.
On to `C=CC(=O)Nc1cccc(N(C(=O)Cc2cccnc2)C(C(=O)NC2CC(F)(F)C2)c2ccccc2Cl)c1` (stereo not drawn) [Compound 88, N-(3-(N-(1-(2-chlorophenyl)-2-(3,3-difluorocyclobutylamino)-2-oxoethyl)-2-(pyridin-3-yl)acetamido)phenyl)acrylamide], for which the IC50 was 100 to 500 nM on IDH1 R132C, 500 to 1000 nM on IDH1 R132H and 1000 to 2000 nM in the assay with HT1080 cells.
On to `COC(=O)N1C[C@H](OCCO)C[C@H]1C(=O)N(c1cccc(F)c1)[C@H](C(=O)NC1CC(F)(F)C1)c1ccccc1Cl` [Compound 90], for which the results for the IC50 at IDH1 R132C, on IDH1 R132H and with HT1080 cells were at most 100 nM, at most 100 nM and 100 to 500 nM, respectively.
As for `COC(=O)N1CC[C@H](O)[C@H]1C(=O)N(c1cccc(F)c1)[C@H](C(=O)NC1CC(F)(F)C1)c1ccccc1Cl` [Compound 91], the IC50 at IDH1 R132C was 100 to 500 nM; at IDH1 R132H it was at most 100 nM; in the assay on HT1080 cells, 100 to 500 nM.
On to `COC(=O)NCC(=O)N(c1cccc(F)c1)C(C(=O)NC1CCC(F)(F)CC1)c1ccccc1Cl` (stereo not drawn) [Compound 92], for which the values for the concentration for half-maximal inhibition (IC50) on IDH1 R132C, on IDH1 R132H and with HT1080 cells were at most 100 nM, at most 100 nM and 100 to 500 nM, respectively.
With `CC(C)(C)OC(=O)NCC(=O)N(c1cccc(F)c1)C(C(=O)NC1CCC(F)(F)CC1)c1ccccc1Cl` (stereo not drawn) [Compound 93], the concentration for half-maximal inhibition (IC50) on IDH1 R132C is 100 to 500 nM; on IDH1 R132H, 100 to 500 nM; in the assay with HT1080 cells, 1000 to 2000 nM.
Regarding `COC(=O)N(C)CC(=O)N(c1cccc(F)c1)C(C(=O)NC1CC(F)(F)C1)c1ccccc1Cl` (stereo not drawn) [Compound 96], the half-maximal inhibitory concentration (IC50) on IDH1 R132C was 100 to 500 nM; at IDH1 R132H, at most 100 nM; in the assay with HT1080 cells, 500 to 1000 nM.
Turning to `COC(=O)NCC(=O)N(c1cccc(F)c1)[C@H](C(=O)N[C@H]1CCC(F)(F)C1)c1ccccc1Cl` [Compound 97], the IC50 on IDH1 R132C lay within 100 to 500 nM; on IDH1 R132H, 100 to 500 nM; with HT1080 cells, 500 to 1000 nM.
On to `COC(=O)NCC(=O)N(c1cccc(F)c1)[C@H](C(=O)N[C@@H]1CCC(F)(F)C1)c1ccccc1Cl` [Compound 98], for which the results for the concentration for half-maximal inhibition (IC50) on IDH1 R132C, on IDH1 R132H and in the assay on HT1080 cells were 100 to 500 nM, 100 to 500 nM and 1000 to 2000 nM, respectively.
In the case of `O=C(NC1CC(F)(F)C1)[C@H](c1ccccc1Cl)N(C(=O)[C@@H]1C[C@@H](O)CN1c1ncccn1)c1cccc(F)c1` [Compound 100, (2S,4R)—N—((S)-1-(2-chlorophenyl)-2-(3,3-difluorocyclobutyl-amino)-2-oxoethyl)-N-(3-fluorophenyl)-4-hydroxy-1-(pyrimidin-2-yl)pyrrolidine-2-carbox-amide], the figures for the half-inhibitory concentration (IC50) on IDH1 R132C, at IDH1 R132H and with HT1080 cells were at most 100 nM, at most 100 nM and 100 to 500 nM, respectively.
As for `COC(=O)N[C@@H](CO)C(=O)N(c1cccc(F)c1)C(C(=O)NC1CCC(F)(F)CC1)c1ccccc1Cl` (stereo partly drawn) [Compound 101], the IC50 at IDH1 R132C is 100 to 500 nM; at IDH1 R132H it was 100 to 500 nM; in the assay with HT1080 cells, 1000 to 2000 nM.
As to `COC(=O)N1CC[C@H]1C(=O)N(c1cccc(F)c1)[C@H](C(=O)NC1CC(F)(F)C1)c1ccccc1Cl` [Compound 106], the 50% inhibitory concentration (IC50) is 100 to 500 nM on IDH1 R132C, at most 100 nM on IDH1 R132H and 100 to 500 nM in the assay with HT1080 cells.
Consider `O=C1C[C@@H](C(=O)N(c2cccc(F)c2)[C@H](C(=O)NC2CC(F)(F)C2)c2ccccc2Cl)N(c2ncccn2)C1` [Compound 107], for which the IC50 at IDH1 R132C, at IDH1 R132H and in the assay on HT1080 cells was at most 100 nM each time.
Regarding `O=C(NC1CC(F)(F)C1)[C@@H](c1ccccc1Cl)N(C(=O)[C@H](CO)Nc1ncccn1)c1cccc(F)c1` [Compound 108], the concentration for half-maximal inhibition (IC50) is at most 100 nM on IDH1 R132C, 100 to 500 nM on IDH1 R132H and 100 to 500 nM with HT1080 cells.
With `O=C(NC1CC(F)(F)C1)[C@H](c1ccccc1Cl)N(C(=O)[C@H](CO)Nc1ncccn1)c1cccc(F)c1` [Compound 109], the 50% inhibitory concentration (IC50) at IDH1 R132C, on IDH1 R132H and in the assay on HT1080 cells was at most 100 nM throughout.
For the molecule `C[C@H]1CC[C@@H](C(=O)N(c2cccc(F)c2)[C@@H](C(=O)NC2CCC(F)(F)CC2)c2ccccc2Cl)N1c1ncccn1` [Compound 110, (2S,5S)—N—((R)-1-(2-chlorophenyl)-2-(4,4-difluorocyclohexylamino)-2-oxoethyl)-N-(3-fluorophenyl)-5-methyl-1-(pyrimidin-2-yl)pyrrolidine-2-carboxamide], the IC50 on IDH1 R132C is at most 100 nM; on IDH1 R132H, at most 100 nM; with HT1080 cells, 100 to 500 nM.
